According to article PMC12445744, “Molecular docking to homology models of human and Trypanosoma brucei ERK8 that identified ortholog-specific inhibitors” (PLOS Neglected Tropical Diseases, 2025):
Several values for one entry are separate records, joined by “and”; a condition that tells them apart may be missing. Equal entries are not always repeated.

Biological target: T1, HsERK8 (Homo sapiens, UniProt Q8TD08)
T1 construct: plasmid pGEX2T expressing the full-length hERK8 coding region; made in house; host or cells: Escherichia coli Rosetta 2 (DE3)
T1 sequence (Q8TD08 1-544): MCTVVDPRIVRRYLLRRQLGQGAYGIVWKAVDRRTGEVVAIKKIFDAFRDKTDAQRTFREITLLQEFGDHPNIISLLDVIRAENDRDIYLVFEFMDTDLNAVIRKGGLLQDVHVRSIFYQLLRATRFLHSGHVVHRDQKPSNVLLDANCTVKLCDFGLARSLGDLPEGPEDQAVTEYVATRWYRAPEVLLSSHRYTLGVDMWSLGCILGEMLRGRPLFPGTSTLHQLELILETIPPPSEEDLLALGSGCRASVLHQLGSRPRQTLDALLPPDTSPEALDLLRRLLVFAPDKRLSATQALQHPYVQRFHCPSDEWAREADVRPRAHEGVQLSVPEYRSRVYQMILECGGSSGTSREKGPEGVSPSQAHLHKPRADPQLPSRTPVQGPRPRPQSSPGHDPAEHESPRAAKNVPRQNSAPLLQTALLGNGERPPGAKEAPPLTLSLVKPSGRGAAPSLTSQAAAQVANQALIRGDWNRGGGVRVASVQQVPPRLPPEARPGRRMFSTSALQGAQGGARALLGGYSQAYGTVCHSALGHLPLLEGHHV
Assay: Luciferase-based kinase inhibition assay (ATP luminescence), GST-tagged HsERK8 with MBP substrate
Format: biochemical
Conditions: for raw luminescence, HsERK8: replicate wells; for Luminescence Raw (Kinase-Glo): HsERK8

## C[C@]12C=CC(=O)C=C1CC[C@@H]1[C@@H]2[C@@H](O)C[C@@]2(C)[C@H]1CC[C@]2(O)C(=O)CO [Prednisolone]
  IC50: 300 µM
0.00015 mM compound, sheet ADP_ATP_glo081724 (3)
  raw luminescence, HsERK8: 2318.43 RLU and 2379.5 RLU and 1359.39 RLU
0.00015 mM compound, sheet Kinase_glo 08142024 (2)
  raw luminescence, HsERK8: 11527 RLU and 11136 RLU and 8980.24 RLU
0.00015 mM compound, sheet Kinase_glo_080924_IFPS (2)
  raw luminescence, HsERK8: 3541.75 RLU and 3582.18 RLU and 3076.85 RLU
0.00061 mM compound, sheet ADP_ATP_glo081724 (3)
  raw luminescence, HsERK8: 2825.09 RLU and 2949.5 RLU and 2422.48 RLU
0.00061 mM compound, sheet Kinase_glo 08142024 (2)
  raw luminescence, HsERK8: 11527 RLU and 11503.8 RLU and 9669.24 RLU
0.00061 mM compound, sheet Kinase_glo_080924_IFPS (2)
  raw luminescence, HsERK8: 3770.83 RLU and 3829.22 RLU and 3330.64 RLU
0.00244 mM compound, sheet ADP_ATP_glo081724 (3)
  raw luminescence, HsERK8: 3720.8 RLU and 3505.92 RLU and 3191.52 RLU
0.00244 mM compound, sheet Kinase_glo 08142024 (2)
  raw luminescence, HsERK8: 11998.3 RLU and 11782.7 RLU and 9967.25 RLU
0.00244 mM compound, sheet Kinase_glo_080924_IFPS (2)
  raw luminescence, HsERK8: 4143.65 RLU and 4112.2 RLU and 3658.53 RLU
0.00977 mM compound, sheet ADP_ATP_glo081724 (3)
  raw luminescence, HsERK8: 3641.63 RLU and 3797.7 RLU and 3386.04 RLU
0.00977 mM compound, sheet Kinase_glo 08142024 (2)
  raw luminescence, HsERK8: 11620 RLU and 11670.7 RLU and 9100.71 RLU
0.00977 mM compound, sheet Kinase_glo_080924_IFPS (2)
  raw luminescence, HsERK8: 4774.74 RLU and 5053.23 RLU and 4529.94 RLU
0.03906 mM compound, sheet ADP_ATP_glo081724 (3)
  raw luminescence, HsERK8: 4824.6 RLU and 4808.77 RLU and 4191.27 RLU
0.03906 mM compound, sheet Kinase_glo 08142024 (2)
  raw luminescence, HsERK8: 13839.2 RLU and 14168.9 RLU and 11317.8 RLU
0.03906 mM compound, sheet Kinase_glo_080924_IFPS (2)
  raw luminescence, HsERK8: 7209.85 RLU and 6169.43 RLU and 7796.61 RLU
0.15625 mM compound, sheet ADP_ATP_glo081724 (3)
  raw luminescence, HsERK8: 6885.18 RLU and 7183.74 RLU and 7394.1 RLU
0.15625 mM compound, sheet Kinase_glo 08142024 (2)
  raw luminescence, HsERK8: 27241.9 RLU and 27273.6 RLU and 25587 RLU
0.15625 mM compound, sheet Kinase_glo_080924_IFPS (2)
  raw luminescence, HsERK8: 10574.2 RLU and 11234.5 RLU and 10315.9 RLU
0.62500 mM compound, sheet ADP_ATP_glo081724 (3)
  raw luminescence, HsERK8: 8751.23 RLU and 9074.68 RLU and 6998.27 RLU
0.62500 mM compound, sheet Kinase_glo 08142024 (2)
  raw luminescence, HsERK8: 32595.4 RLU and 32278.4 RLU and 37446.9 RLU
0.62500 mM compound, sheet Kinase_glo_080924_IFPS (2)
  raw luminescence, HsERK8: 11504.5 RLU and 12982.8 RLU and 12069.3 RLU
2.50000 mM compound, sheet ADP_ATP_glo081724 (3)
  raw luminescence, HsERK8: 11083.2 RLU and 11176 RLU and 9323.49 RLU
2.50000 mM compound, sheet Kinase_glo 08142024 (2)
  raw luminescence, HsERK8: 34732.1 RLU and 34810.3 RLU and 30135.3 RLU
2.50000 mM compound, sheet Kinase_glo_080924_IFPS (2)
  raw luminescence, HsERK8: 16242.2 RLU and 17136.1 RLU and 14690.3 RLU
10.00000 mM compound, sheet ADP_ATP_glo081724 (3)
  raw luminescence, HsERK8: 12580.6 RLU and 13211.7 RLU and 13399.4 RLU
10.00000 mM compound, sheet Kinase_glo 08142024 (2)
  raw luminescence, HsERK8: 37851.6 RLU and 37726.9 RLU and 37092.9 RLU
10.00000 mM compound, sheet Kinase_glo_080924_IFPS (2), signal = ATP left
  raw luminescence, HsERK8: 19715.5 RLU and 19196.1 RLU and 19703.2 RLU
Inhibitor 0.00976562 mM, sheet Sil_Pred3, read 3
  Luminescence Raw (Kinase-Glo): 88068.9 and 93660.9 and 91592.3
Inhibitor 0.0195312 mM, sheet Sil_Pred3, read 3
  Luminescence Raw (Kinase-Glo): 91367.4 and 97331.9 and 97175
Inhibitor 0.0390625 mM, sheet Sil_Pred3, read 3
  Luminescence Raw (Kinase-Glo): 94347.3 and 94052.1 and 92142.9
Inhibitor 0.078125 mM, sheet Sil_Pred3, read 3
  Luminescence Raw (Kinase-Glo): 98578.2 and 105295 and 104564
Inhibitor 0.15625 mM, sheet Sil_Pred3, read 3
  Luminescence Raw (Kinase-Glo): 97978.5 and 103671 and 102378
Inhibitor 0.3125 mM, sheet Sil_Pred3, read 3
  Luminescence Raw (Kinase-Glo): 103442 and 105117 and 104861
Inhibitor 0.625 mM, sheet Sil_Pred3, read 3
  Luminescence Raw (Kinase-Glo): 118041 and 120665 and 116088
Inhibitor 0.00976562, sheet Sil_Pred1, read 1
  Luminescence Raw (Kinase-Glo): 100407 and 106564 and 102910
Inhibitor 0.00976562, sheet Sil_Pred2, read 2
  Luminescence Raw (Kinase-Glo): 90625.3 and 98037.5 and 95030.3
Inhibitor 0.0195312, sheet Sil_Pred1, read 1
  Luminescence Raw (Kinase-Glo): 105846 and 111118 and 110378
Inhibitor 0.0195312, sheet Sil_Pred2, read 2
  Luminescence Raw (Kinase-Glo): 95809.4 and 101447 and 100168
Inhibitor 0.0390625, sheet Sil_Pred1, read 1
  Luminescence Raw (Kinase-Glo): 108782 and 106859 and 106809
Inhibitor 0.0390625, sheet Sil_Pred2, read 2
  Luminescence Raw (Kinase-Glo): 97258.4 and 97956.1 and 97225.8
Inhibitor 0.078125, sheet Sil_Pred1, read 1
  Luminescence Raw (Kinase-Glo): 114996 and 120390 and 121203
Inhibitor 0.078125, sheet Sil_Pred2, read 2
  Luminescence Raw (Kinase-Glo): 101568 and 107854 and 109541
Inhibitor 0.15625, sheet Sil_Pred1, read 1
  Luminescence Raw (Kinase-Glo): 112780 and 119367 and 115572
Inhibitor 0.15625, sheet Sil_Pred2, read 2
  Luminescence Raw (Kinase-Glo): 101289 and 108375 and 104275
Inhibitor 0.3125, sheet Sil_Pred1, read 1
  Luminescence Raw (Kinase-Glo): 120905 and 121070 and 122162
Inhibitor 0.3125, sheet Sil_Pred2, read 2
  Luminescence Raw (Kinase-Glo): 107913 and 110173 and 110911
Inhibitor 0.625 (mM per sheet Pred3), sheet Kinase-Glo802124_Sil_Pred1, read 1, triplicate wells
  Luminescence Raw (Kinase-Glo): 138550 and 138736 and 130936
Inhibitor 0.625, sheet Sil_Pred2, read 2
  Luminescence Raw (Kinase-Glo): 122997 and 124612 and 121493
